Reference: ChEMBL document CHEMBL2429804, “Examination of the phenolic profile and antioxidant activity of the leaves of the Australian native plant Smilax glyciphylla” (J Nat Prod, 2013)

How the values were obtained:
[1] = Antioxidant activity assessed as trolox equivalent of DPPH scavenging activity after 4 mins by spectrophotometry; type: functional
[2] = Antioxidant activity assessed as trolox equivalent of ferric ion reducing activity using fe3+-TPTZ after 4 mins by FRAP assay; type: functional

Compound	Activity [1] [equiv]	Activity [2] [equiv]
O=C(CCc1ccc(O)c(O)c1)c1c(O)cc(O)cc1O	0.88	0.64
C[C@@H]1O[C@@H](Oc2cc(O)cc(O)c2C(=O)CCc2ccc(O)c(O)c2)[C@H](O)[C@H](O)[C@H]1O	0.48	0.72
O=c1c(O)c(-c2ccc(O)cc2)oc2cc(O)cc(O)c12	2.4	2.36
Oc1cc(O)c2c(c1)OC(c1ccc(O)c(O)c1)C(O)C2 (stereo not given)	0.44	0.56
O=c1c(O[C@@H]2O[C@H](CO)[C@@H](O)[C@H](O)[C@H]2O)c(-c2ccc(O)c(O)c2)oc2cc(O)cc(O)c12	0.56	0.56
